{"source": "patent US20220387369A1", "about": "“Prooxidative chain-transfer agents for use in the treatment of malignant tumour or infectious diseases” (Universitätsmedizin der Johannes Gutenberg-Universität Mainz, priority 2019, published 2022)", "key": {"HT22 cells": {"tested_on": "HT22 cells", "experiment": "Cytotoxic activity in cultivated HT22 cells (MTT), normoxic and hypoxic", "assay_type": "cell-based, mouse", "conditions": "1 day or 3 days, 20% O2 vs 1% O2, FIG. 2B", "procedure": "(FIG. 2A) HT22 are a widely used, immortalized neuronal cell line that has been generated by transforming mouse neuronal tissue with the oncogenic SV40 T-antigen (Morimoto and Koshland, Neuron 5:875-880, 1990). HT22 cells were cultivated in high-glucose DMEM (Dulbecco's Modified Eagle's Medium) supplemented with 10% heat-inactivated FCS (fetal calf serum), 1 mM pyruvate, 100 mg/L streptomycin and 100 U/mL penicillin. For routine culture, cells were grown in 100 mm dishes at 37° C. in a humidified atmosphere containing 5% CO2. They were passaged three times per week on reaching approximately 90% confluence and splitted 1:10. All cell culture reagents were from Invitrogen, Carlsbad, Calif., USA.\nFor cell survival experiments, HT22 cells were seeded into 96-well plates at a density of ˜5000 cells per well in 0.1 mL medium. After 24 h cultivation, the cells were administered with the indicated concentrations of the tested compounds (n-octyl thiol (8-SH) or n-dodecyl thiol (12-SH)) dissolved in ethanol (final concentration: 1%). After 1 day or 3 days of incubation as indicated, cell survival was analyzed by colorimetric MTT reduction tests (MTT is 3-(4,5-dimethylthiazol-2-yl-)-2,5 diphenyltetrazolium bromide) which were performed exactly as described (Hajieva et al., J Neurochem 110:118-132, 2009). […]"}, "Drosophila melanogaster": {"tested_on": "Drosophila melanogaster", "experiment": "Ultrastructural effects in fruit flies in vivo (electron microscopy)", "conditions": "1 mM in the feed, electron micrographs", "procedure": "Male Drosophila melanogaster (strain Oregon-R) were maintained at 25° C. in plastic vials covered with air-permeable lids and received standard food (50 g/L refined household sugar, 50 g/L baker's yeast, and 20 g/L agar powder). The medium was boiled under stirring, adding the following supplements at approximately 70° C.: 3 g/L methylparabene (dissolved in ethanol, final concentration: 0.15%), 3 mL/L propionic acid and the appropriate amount of n-dodecyl thiol (12-SH) dissolved in ethanol (final concentration: 0.1%). Synchronized male flies were transferred into new vials and scored for survival every other day. Treatment started on day 2 of adulthood. Electron microscopy. Flies harvested after 50 days of treatment were cryofixed by plunge freezing, cut into head, thorax and abdomen before chemical fixation for 90 min with 3% glutaraldehyde and 3% formaldehyde in PBS. The tissues were washed, fixed with 2% OsO4, washed again, dehydrated with rising concentrations of ethanol, transitionally stabilized with propylene oxide and embedded into epoxy resin essentially as described (Bozzola and Russel, Electron Microscopy: Jones and Bartlett Publishers, Inc., Sudbury, M A, 1999). The polymerized blocks were mounted, trimmed, and sectioned in an ultramicrotome before transfer onto electron microscopy grids. Images were acquired under standard conditions in a Tecnai Transmission Electron Microscope (FEI Company, Hillsboro, Oreg., USA)."}, "[1]": {"tested_on": "Primary human fibroblasts", "experiment": "8-Isoprostane release from diploid human fibroblasts", "assay_type": "cell-based", "conditions": "100 μM, medium with 10% fetal calf serum, time course, FIG. 3C (a)", "procedure": "(§1) (FIG. 3A) Normal human diploid fibroblasts were cultivated under standard conditions stimulating cell division, i.e. with 10% serum in the medium. Specifically, the cells were grown in high-glucose DMEM (Dulbecco's Modified Eagle's Medium) supplemented with 10% heat-inactivated FCS (fetal calf serum), 1× non-essential amino acid (NEAA) supplement, 1 mM pyruvate, 100 mg/L streptomycin and 100 U/mL penicillin. For cultivation, the cells were maintained at 37° C. in a humidified atmosphere containing 5% CO2. The cells were generally passaged on reaching approximately 90% confluence and were seeded, after counting of the PDLs (population doublings), in new dishes at a density of 10^6 cells per dish in 100 mm dishes, or at a density of 10^4 cells per well in 96-well plates. Cells were used for experiments at PDL 25-30. All cell culture reagents were from Invitrogen, Carlsbad, Calif., USA.\n(FIG. 3C) 8-Isoprostanes. Cells cultivated in 96-well plates for 24 h were administered with 100 μM n-dodecyl thiol (12-SH) for the indicated time before removing the cell culture supernatant for 8-isoprostane analysis. 8-Isoprostane analysis was achieved by a commercial enzyme immunoassay (Cayman Chemicals, Ann Arbor, Mich., USA), which was conducted as detailed in the manufacturers instructions."}, "[2]": {"tested_on": "Primary human fibroblasts", "experiment": "Protein polyubiquitination in diploid human fibroblasts (Western blot)", "assay_type": "cell-based", "conditions": "500 μM, medium with 10% fetal calf serum, time course, FIG. 3C (b)", "procedure": "as §1\nProtein polyubiquitination. Cells cultivated in 100 mm dishes for 24 h were administered with 500 μM n-dodecyl thiol (12-SH) for the indicated time before harvesting of the cells in lysis buffer (50 mM Tris-HCl, pH 7.4, 10% sucrose, 1 mM EDTA, 1 mM EGTA, 1 mM Na3VO4, 1 mM NaF, 1× protease inhibitor cocktail from Sigma-Aldrich, St. Louis, Mo., USA) followed by brief sonication and denaturation at 95° C. for 2 min. […] Densitometric quantification was performed using automated image analysis software."}, "C. elegans [3]": {"tested_on": "C. elegans", "experiment": "8-Isoprostane in homogenates of treated nematodes", "assay_type": "in vivo, Caenorhabditis elegans", "conditions": "0.1 mM or 0.5 mM, FIG. 4 (b)", "procedure": "8-Isoprostanes. Synchronized, 4-day-old adult worms distributed in cell culture flasks were administered with the indicated concentration of n-dodecyl thiol (12-SH) dissolved in ethanol (final concentration: 1%) and cultivated for 6 h or 48 has indicated. The worms were collected by centrifugation at 1200 g, washed twice with S-Basal medium, and once with DMEM medium containing 100 μM butylated hydroxytoluene (BHT). The worms were then homogenized in DMEM/BHT by sonication (3×20 s at 30 kHz on ice). Equal amounts of protein of the resulting homogenate (as per bicinchoninic acid assay from Pierce, Rockford, Ill., USA) were probed for the presence of 8-isoprostane by a commercial enzyme immunoassay (Cayman Chemicals, Ann Arbor, Mich., USA) following the manufacturer's instructions."}, "[4]": {"tested_on": "Native lipid membranes from rat brain", "experiment": "Lipid peroxidation (malondialdehyde/TBARS) in native rat brain membranes", "assay_type": "biochemical", "procedure": "Native biological membranes from adult rat brain were prepared by differential centrifugation as described (Moosmann and Behl, Proc Nati Acad Sci USA 96:8867-8872, 1999). Samples containing 0.5 mg/ml total protein (as per bicinchoninic acid assay from Pierce, Rockford, Ill., USA) were solubilized by brief sonication in PBS (phosphate-buffered saline) and administered with the indicated concentrations of n-dodecyl thiol (12-SH; from Sigma-Aldrich, St. Louis, Mo., USA) dissolved in ethanol (final concentration: 0.1%). Subsequently, 10 μM Fe^2+/200 μM ascorbate were added as radical-initiating mix; controls received vehicle (water). After the indicated time, the reaction was stopped by adding 2.5 volumes of 5% trichloroacetic acid in 1 M acetic acid, followed by centrifugation (10,000 g for 10 min). Subsequently, thiobarbituric acid-reactive substances (TBARS) as marker of lipid peroxidation were quantified fluorimetrically as detailed before (Hajieva et al., J Neurochem 110:118-132, 2009)."}, "C. elegans [5]": {"tested_on": "C. elegans", "experiment": "Toxicity (survival) in nematodes in vivo", "design": "species or system Caenorhabditis elegans", "conditions": "0.5 mM in minimum diet with varying amounts of coliform bacteria, oral, FIG. 4 (a)", "procedure": "Caenorhabditis elegans N2 Bristol strain animals were expanded and cultivated at 20° C. on nematode growth medium (NGM) plates in the presence of Escherichia coli strain HB101 as food source following standard protocols (Mocko et al., Neurobiol Dis 40:120-129, 2010). For the toxicity experiments, synchronized adult worms aged 2 days were maintained in liquid culture medium (S-Basal medium supplemented with 5 mg/L cholesterol, 100 mg/L streptomycin, 100 mg/L fluorodeoxyuridine (FUDR)) to which varying amounts of Escherichia coli were added (measured as optical density (OD) at 600 nm wavelength) as described (Mair et al., PLoS One 4:e4535, 2009). Worms distributed in 48-well plates were administered with 500 μM n-dodecyl thiol (12-SH) dissolved in ethanol (final concentration: 1%) and analyzed, after the indicated time, for survival by visual inspection and mechanical stimulation (nose-touch assay) as detailed (Mocko et al., Neurobiol Dis 40:120-129, 2010)."}}, "data": [{"smiles": "CCCCCCCCCCCCS", "note": "[n-dodecylthiol]", "values": [{"measurement": "cytotoxic effectiveness under hypoxic versus normal oxygen conditions", "setting": "HT22 cells", "value": "not compromised by hypoxic conditions"}, {"measurement": "myofibrillar structure", "setting": "Drosophila melanogaster; FIG. 5A", "value": "intact"}, {"measurement": "ultrastructural effect on muscle mitochondria", "setting": "Drosophila melanogaster; FIG. 5A", "value": "intramitochondrial, spiral multilamellar lesions"}, {"measurement": "ultrastructural lesions in the nervous system (a, b) and photoreceptor cells (c)", "setting": "Drosophila melanogaster; FIG. 5B", "value": "spiral multilamellar lesions of mitochondrial origin"}, {"measurement": "other damage phenotype, nervous system (b)", "setting": "Drosophila melanogaster; FIG. 5B (b)", "value": "vacuolization and electron-dense aggregation"}, {"measurement": "other damage phenotype, photoreceptor cells (c)", "setting": "Drosophila melanogaster; FIG. 5B (c)", "value": "bright lipofuscin accumulation"}, {"measurement": "concentration of released lipid peroxidation marker 8-isoprostane", "setting": "[1]", "value": "increased significantly within a few hours"}, {"measurement": "amount of polyubiquitinated proteins in the cell (marker of protein damage)", "setting": "[2]", "value": "increased significantly within a few hours"}, {"measurement": "concentration of lipid peroxidation marker 8-isoprostane in worm homogenates", "setting": "C. elegans [3]", "value": "increased to a constant maximum after only 6 h"}, {"measurement": "extent of lipid peroxidation (as malondialdehyde)", "setting": "[4]; absence of any radical initiation (\"dead membranes\"), FIG. 1 (a)", "value": "absence of any effect"}, {"measurement": "extent of lipid peroxidation (as malondialdehyde)", "setting": "[4]; low level of free radical initiator (iron/ascorbate) added, FIG. 1 (b)", "value": "massively amplified"}, {"measurement": "worms killed / toxicity in vivo", "setting": "C. elegans [5]", "value": "led to death after a few days"}]}]}
